Data as given in patent US20050032873A1, “3-Amino chroman and 2-amino tetralin derivatives” (Wyeth, priority 2003, published 2005).
Where a name gives a salt, the structure may show the parent alone.

In the case of `CCN(CCCc1c[nH]c2ccc(Cl)cc12)C1COc2c(F)ccc(C(N)=O)c2C1` (centres unmarked) (as salt: hydrochloride) [Compound 115, 3-[[3-(5-chloro-1H-indol-3-yl)propyl](ethyl)amino]-8-fluorochromane-5-carboxamide], the melting point is reported as 149 to 156 °C (dec.).
With `COc1ccc2[nH]cc(CCCNC3COc4c(F)ccc(C(N)=O)c4C3)c2c1` (centres unmarked) (as salt: hydrochloride) [Compound 104, 8-fluoro-3-{[3-(5-methoxy-1H-indol-3-yl)propyl]amino}chromane-5-carboxamide] the melting point was 171 to 176 °C (dec.).
In the case of `NC(=O)c1ccc(F)c2c1CC(N(CCCc1c[nH]c3ccc(F)cc13)CC1CC1)CO2` (centres unmarked) (as salt: hydrochloride) [Compound 5, 3-{(cyclopropylmethyl)[3-(5-fluoro-1H-indol-3-yl)propyl]amino}-8-fluorochromane-5-carboxamide], the melting point is reported as 121 °C (dec.).
In the case of `CCCCN(CCCc1coc2c(OC)cccc12)C1COc2c(F)ccc(C(N)=O)c2C1` (centres unmarked) (as salt: hydrochloride) [Compound 166, 3-{butyl[3-(7-methoxy-1-benzofuran-3-yl)propyl]amino}-8-fluorochromane-5-carboxamide], the melting point is reported as 110 to 117 °C (dec.).
`NC(=O)c1ccc(F)c2c1CC(NCCCn1ccc3ccccc31)CO2` (centres unmarked) (as salt: hydrochloride) [Compound 184, 8-Fluoro-3-{[3-(1H-indol-1-yl)propyl]amino}chromane-5-carboxamide] showed a melting point of 155 to 156 °C.
With `COc1cccc2c1CC(N(CCCc1c[nH]c3ccc(F)cc13)C(C)C)CO2` (centres unmarked) (as salt: hydrochloride) [Compound 40, N-[3-(5-fluoro-1H-indol-3-yl)propyl]-N-isopropyl-N-(5-methoxy-3,4-dihydro-2H-chromen-3-yl)amine] the melting point was 105 °C (dec.).
In the case of `O=C(NC1CC1)c1ccc(F)c2c1CC(N(CCCc1c[nH]c3ccc(F)cc13)C1CCC1)CO2` (centres unmarked) (as salt: hydrochloride) [Compound 64, 3-{cyclobutyl[3-(5-fluoro-1H-indol-3-yl)propyl]amino}-N-cyclopropyl-8-fluorochromane-5-carboxamide], the melting point is reported as 134 °C (dec.).
With `CCCN(CCCCc1c[nH]c2ccc(F)cc12)C1COc2c(C(N)=O)ccc(F)c2C1` (centres unmarked) (as salt: hydrochloride) [Compound 124, 5-fluoro-3-[[4-(5-fluoro-1H-indol-3-yl)butyl](propyl)amino]chromane-8-carboxamide] the melting point was 116 °C (dec.).
With `CCCN(CCc1c[nH]c2ccc(F)cc12)C1COc2c(F)ccc(C(N)=O)c2C1` (centres unmarked) (as salt: hydrochloride) [Compound 77, 8-fluoro-3-[[2-(5-fluoro-1H-indol-3-yl)ethyl](propyl)amino]chromane-5-carboxamide] the melting point was 125 °C (dec.).
With `NC(=O)c1ccc(F)c2c1OCC(NCCCc1c[nH]c3c(F)cc(F)cc13)C2` (centres unmarked) (as salt: hydrochloride) [Compound 128, 3-{[3-(5,7-difluoro-1H-indol-3-yl)propyl]amino}-5-fluorochromane-8-carboxamide] the melting point was 149 °C (dec.).
Molecule `CCCN(C(C)CCCc1c[nH]c2ccc(F)cc12)C1COc2c(F)ccc(C(N)=O)c2C1` (single isomer, unassigned; (-)) (as salt: hydrochloride) [Compound 14b, (−)-8-fluoro-3-[[4-(5-fluoro-1H-indol-3-yl)-1-methylbutyl](propyl)amino]chromane-5-carboxamide] has a melting point of 147 to 150 °C.
For `CNC(=O)c1ccc(F)c2c1CC(N(CCCc1c[nH]c3ccc(F)cc13)C1CCC1)CO2` (centres unmarked) (as salt: hydrochloride) [Compound 59, 3-{cyclobutyl[3-(5-fluoro-1H-indol-3-yl)propyl]amino}-8-fluoro-N-methylchromane-5-carboxamide], the melting point was 132 °C (dec.).
For `O=C(O)c1ccc(F)c2c1CC(N(CCCc1c[nH]c3ccc(F)cc13)C1CCC1)CO2` (centres unmarked) (as salt: hydrochloride) [Compound 56, 3-{cyclobutyl[3-(5-fluoro-1H-indol-3-yl)propyl]amino}-8-fluorochromane-5-carboxylic acid], the melting point was 140 °C (dec.).
With `CCCN(C1COc2cccc(OC)c2C1)[C@H]1CC[C@@H](c2c[nH]c3ccc(F)cc32)CC1` (relative stereo) (as salt: hydrochloride) [Compound 182, cis-N-[4-(5-fluoro-1H-indol-3-yl)cyclohexyl]-5-methoxy-N-propylchroman-3-amine] the melting point was 148 °C (dec.).
In the case of `NC(=O)c1ccc(F)c2c1CC(N(CCCc1c[nH]c3c(Cl)cccc13)C1CCC1)CO2` (centres unmarked) (as salt: hydrochloride) [Compound 111, 3-[[3-(7-chloro-1H-indol-3-yl)propyl](cyclobutyl)amino]-8-fluorochromane-5-carboxamide], the melting point is reported as 154 to 163 °C (dec.).
With `CCN(C(C)CCc1c[nH]c2ccc(F)cc12)C1COc2c(F)ccc(C(N)=O)c2C1` (single isomer, unassigned; (-)) (as salt: hydrochloride) [Compound 16a, (−)-3-{ethyl[3-(5-fluoro-1H-indol-3-yl)-1-methylpropyl]amino}-8-fluorochromane-5-carboxamide] the melting point was 132 °C (dec.).
For `CCCN(CCCc1c[nH]c2ccc(F)cc12)C1COc2c(F)ccc(C(=O)NC)c2C1` (centres unmarked) (as salt: hydrochloride) [Compound 90, 8-fluoro-3-[[3-(5-fluoro-1H-indol-3-yl)propyl](propyl)amino]-N-methylchromane-5-carboxamide], the melting point was 123 °C (dec.).
In the case of `CCN(CCCCc1c[nH]c2ccc(F)cc12)C1COc2c(C(N)=O)ccc(F)c2C1` (centres unmarked) (as salt: hydrochloride) [Compound 127, 3-{ethyl[4-(5-fluoro-1H-indol-3-yl)butyl]amino}-5-fluorochromane-8-carboxamide], the melting point is reported as 112 °C (dec.).
In the case of `NC(=O)c1ccc(F)c2c1OCC(N(CCCc1c[nH]c3ccc(F)cc13)C1CCC1)C2` (centres unmarked) (as salt: hydrochloride) [Compound 122, 3-{cyclobutyl[3-(5-fluoro-1H-indol-3-yl)propyl]amino}-5-fluorochromane-8-carboxamide], the melting point is reported as 132 °C (dec.).
`COc1cccc2c(CCCN(CC3CC3)C3COc4c(F)ccc(C(N)=O)c4C3)coc12` (centres unmarked) (as salt: hydrochloride) [Compound 165, 3-{(cyclopropylmethyl)[3-(7-methoxy-1-benzofuran-3-yl)propyl]amino}-8-fluorochromane-5-carboxamide] gave a melting point of 125 to 132 °C.
For `CNC(=O)c1ccc(F)c2c1CC(NCCc1c[nH]c3ccc(F)cc13)CO2` (centres unmarked) (as salt: hydrochloride) [Compound 84, 8-fluoro-3-{[2-(5-fluoro-1H-indol-3-yl)ethyl]amino}-N-methylchromane-5-carboxamide], the melting point was 148 °C (dec.).
With `CCN(CCCc1c[nH]c2c(F)cc(F)cc12)C1COc2c(C(N)=O)ccc(F)c2C1` (centres unmarked) (as salt: hydrochloride) [Compound 132, 3-[[3-(5,7-difluoro-1H-indol-3-yl)propyl](ethyl)amino]-5-fluorochromane-8-carboxamide] the melting point was 125 °C (dec.).
For `CC(C)NC(=O)c1ccc(F)c2c1CC(N(CCCc1c[nH]c3ccc(F)cc13)C1CCC1)CO2` (centres unmarked) (as salt: hydrochloride) [Compound 63, 3-{cyclobutyl[3-(5-fluoro-1H-indol-3-yl)propyl]amino}-8-fluoro-N-isopropylchromane-5-carboxamide], the melting point was 127 °C (dec.).
With `CCCNC(=O)c1ccc(F)c2c1CC(N(CCCc1c[nH]c3ccc(F)cc13)C1CCC1)CO2` (centres unmarked) (as salt: hydrochloride) [Compound 61, 3-{cyclobutyl[3-(5-fluoro-1H-indol-3-yl)propyl]amino}-8-fluoro-N-propylchromane-5-carboxamide] the melting point was 67 °C (dec.).
For `CNC(=O)c1ccc(F)c2c1C[C@@H](N(CCCCc1c[nH]c3ccc(F)cc13)C1CCC1)CO2` (as salt: hydrochloride) [Compound 145b, (3R)-3-{cyclobutyl[4-(5-fluoro-1H-indol-3-yl)butyl]amino}-8-fluoro-N-methylchromane-5-carboxamide], the melting point was 125 °C (dec.).
In the case of `NC(=O)c1ccc(F)c2c1CC(N(CCc1c[nH]c3ccc(F)cc13)CC1CC1)CO2` (centres unmarked) (as salt: hydrochloride) [Compound 78, 3-{(cyclopropylmethyl)[2-(5-fluoro-1H-indol-3-yl)ethyl]amino}-8-fluorochromane-5-carboxamide], the melting point is reported as 132 °C (dec.).
For `CCCN(CCCCc1c[nH]c2ccc(F)cc12)C1COc2c(F)ccc(C(N)=O)c2C1` (centres unmarked) (as salt: hydrochloride) [Compound 81, 8-fluoro-3-[[4-(5-fluoro-1H-indol-3-yl)butyl](propyl)amino]chromane-5-carboxamide], the melting point was 115 °C (dec.).
For `COc1cccc2c(CCCCN(C3CCC3)C3COc4c(F)ccc(C(N)=O)c4C3)coc12` (centres unmarked) (as salt: hydrochloride) [Compound 171, 3-{cyclobutyl[4-(7-methoxy-1-benzofuran-3-yl)butyl]amino}-8-fluorochromane-5-carboxamide], the melting point was 122 to 127 °C (dec.).
With `NC(=O)c1ccc(F)c2c1CC(N(CCCCc1c[nH]c3ccc(F)cc13)C1CCC1)CO2` (centres unmarked) (as salt: hydrochloride) [Compound 83, 3-{cyclobutyl[4-(5-fluoro-1H-indol-3-yl)butyl]amino}-8-fluorochromane-5-carboxamide] the melting point was 122 °C (dec.).
With `COC(=O)c1ccc(F)c2c1C[C@@H](NCCCCc1c[nH]c3ccc(F)cc13)CO2` (as salt: hydrochloride) [Compound 57b, methyl (3R)-8-fluoro-3-{[4-(5-fluoro-1H-indol-3-yl)butyl]amino}chromane-5-carboxylate] the melting point was 240 °C (dec.).
With `CCCN(CCCc1coc2ccccc12)C1COc2c(F)ccc(C(N)=O)c2C1` (centres unmarked) (as salt: hydrochloride) [Compound 20, 3-[[3-(1-benzofuran-3-yl)propyl](propyl)amino]-8-fluorochromane-5-carboxamide] the melting point was 114 to 118 °C (dec.).
With `COC(=O)c1ccc(F)c2c1C[C@H](NCCCCc1c[nH]c3ccc(F)cc13)CO2` (as salt: hydrochloride) [Compound 57a, Methyl (3S)-8-fluoro-3-{[4-(5-fluoro-1H-indol-3-yl)butyl]amino}chromane-5-carboxylate] the melting point was 240 °C (dec.).
